In PubChem BioAssay (NCI):
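Tested at 5 concentrations; 48 h exposure; 96-well plates; endpoints linearly interpolated, else capped at highest concentration. TGI denotes the concentration required for complete inhibition of growth.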

Experiments:
Assay in all cases: NCI anticancer screen, dose series, 48 h
SF-268 CNS = tested on: SF-268 CNS
K-562 leukemia = tested on: K-562 leukemia
EKVX NSCLC = tested on: EKVX NSCLC
HCT-116 colon = tested on: HCT-116 colon
M19-MEL melanoma = tested on: M19-MEL melanoma
SK-OV-3 ovarian = tested on: SK-OV-3 ovarian
NCI-H23 lung = tested on: NCI-H23 lung
SNB-19 CNS = tested on: SNB-19 CNS
HL-60(TB) leukemia = tested on: HL-60(TB) leukemia
SK-MEL-5 melanoma = tested on: SK-MEL-5 melanoma
HCT-15 colon = tested on: HCT-15 colon
NCI-H522 lung = tested on: NCI-H522 lung
COLO 205 colon = tested on: COLO 205 colon
XF 498 CNS = tested on: XF 498 CNS
KM12 colon = tested on: KM12 colon
RXF 393 renal = tested on: RXF 393 renal
SK-MEL-28 melanoma = tested on: SK-MEL-28 melanoma
NCI-H460 lung = tested on: NCI-H460 lung
HCC-2998 colon = tested on: HCC-2998 colon
OVCAR-3 ovarian = tested on: OVCAR-3 ovarian
OVCAR-8 ovarian = tested on: OVCAR-8 ovarian
UACC-257 melanoma = tested on: UACC-257 melanoma
LOX IMVI melanoma = tested on: LOX IMVI melanoma
786-0 renal = tested on: 786-0 renal
NCI-H226 lung = tested on: NCI-H226 lung
UO-31 renal = tested on: UO-31 renal
RXF-631 renal = tested on: RXF-631 renal
M14 melanoma = tested on: M14 melanoma
OVCAR-5 ovarian = tested on: OVCAR-5 ovarian
RPMI-8226 leukemia = tested on: RPMI-8226 leukemia
SN12C renal = tested on: SN12C renal
HOP-92 NSCLC = tested on: HOP-92 NSCLC
LXFL 529 NSCLC = tested on: LXFL 529 NSCLC
A549 NSCLC = tested on: A549 NSCLC
U251 CNS = tested on: U251 CNS
SF-539 CNS = tested on: SF-539 CNS
DMS 114 small cell lung = tested on: DMS 114 small cell lung
KM20L2 colon = tested on: KM20L2 colon
HOP-62 NSCLC = tested on: HOP-62 NSCLC
HT29 colon = tested on: HT29 colon
OVCAR-4 ovarian = tested on: OVCAR-4 ovarian
SF-295 CNS = tested on: SF-295 CNS
ACHN renal = tested on: ACHN renal
IGROV1 ovarian = tested on: IGROV1 ovarian
SK-MEL-2 melanoma = tested on: SK-MEL-2 melanoma
UACC-62 melanoma = tested on: UACC-62 melanoma
DMS 273 small cell lung = tested on: DMS 273 small cell lung
TK-10 renal = tested on: TK-10 renal
SR leukemia = tested on: SR leukemia
CCRF-CEM leukemia = tested on: CCRF-CEM leukemia
SNB-78 CNS = tested on: SNB-78 CNS
SNB-75 CNS = tested on: SNB-75 CNS
DLD-1 colon = tested on: DLD-1 colon
MOLT-4 leukemia = tested on: MOLT-4 leukemia
MALME-3M melanoma = tested on: MALME-3M melanoma
A498 renal = tested on: A498 renal
HOP-18 NSCLC = tested on: HOP-18 NSCLC
SW-620 colon = tested on: SW-620 colon
CAKI-1 renal = tested on: CAKI-1 renal
MDA-N = tested on: MDA-N
NCI/ADR-RES ovarian = tested on: NCI/ADR-RES ovarian
PC-3 prostate = tested on: PC-3 prostate
MDA-MB-435 = tested on: MDA-MB-435
T-47D breast = tested on: T-47D breast
DU-145 prostate = tested on: DU-145 prostate
HS 578T breast = tested on: HS 578T breast
MCF7 breast = tested on: MCF7 breast
MDA-MB-231 breast = tested on: MDA-MB-231 breast
BT-549 breast = tested on: BT-549 breast

Measured: TGI

COc1ccccc1C(O)(c1ccccc1)C(O)(c1ccccc1)c1ccccc1OC (stereo not drawn)
> 31.6 µM: SK-OV-3 ovarian
not listed: CAKI-1 renal | MDA-N | NCI/ADR-RES ovarian | PC-3 prostate | MDA-MB-435 | T-47D breast | DU-145 prostate | HS 578T breast | MCF7 breast | MDA-MB-231 breast | BT-549 breast
> 100 µM: all other assays above

COc1ccc2cc3[nH]c(=O)cc(O)c3cc2c1OC
not listed: SK-OV-3 ovarian | SK-MEL-5 melanoma | NCI-H522 lung | COLO 205 colon | DMS 273 small cell lung | DLD-1 colon | MDA-N | NCI/ADR-RES ovarian | PC-3 prostate | MDA-MB-435 | T-47D breast | DU-145 prostate | HS 578T breast | MCF7 breast | MDA-MB-231 breast | BT-549 breast
> 100 µM: all other assays above

CCCCCCCCCCCCCCCCCCN(C)C(COC)COP(=O)([O-])OCC[N+](C)(C)C (stereo not drawn)
22.4 µM: OVCAR-3 ovarian
14.1 µM: SNB-19 CNS
13.7 µM: M14 melanoma
6.92 µM: KM20L2 colon
22.9 µM: SR leukemia
9.44 µM: HT29 colon
23.7 µM: MCF7 breast
39.8 µM: XF 498 CNS
4.28 µM: MOLT-4 leukemia
15.4 µM: LXFL 529 NSCLC
4.2 µM: U251 CNS
3.12 µM: RXF 393 renal
36.7 µM: SK-MEL-28 melanoma
12.3 µM: OVCAR-4 ovarian
33.9 µM: MDA-MB-435
3.2 µM: KM12 colon
25.8 µM: SK-OV-3 ovarian
7.41 µM: CCRF-CEM leukemia
3.46 µM: HCC-2998 colon
34.1 µM: T-47D breast | A498 renal
31.4 µM: UO-31 renal
3.32 µM: PC-3 prostate
12.1 µM: NCI-H226 lung | HOP-62 NSCLC
3.22 µM: COLO 205 colon
31.3 µM: K-562 leukemia
4.43 µM: TK-10 renal
2.92 µM: DMS 273 small cell lung
21.1 µM: A549 NSCLC
26.3 µM: OVCAR-8 ovarian
24.5 µM: DU-145 prostate
3.56 µM: 786-0 renal
> 58.3 µM: NCI/ADR-RES ovarian
8.3 µM: SNB-75 CNS
10.3 µM: SF-295 CNS
17 µM: HCT-116 colon | HOP-18 NSCLC
12.5 µM: SF-268 CNS
29.5 µM: UACC-257 melanoma | MALME-3M melanoma
34.2 µM: EKVX NSCLC
19.5 µM: SN12C renal
10.7 µM: NCI-H522 lung
19.2 µM: UACC-62 melanoma
26 µM: RXF-631 renal | BT-549 breast
12.9 µM: M19-MEL melanoma
19.6 µM: MDA-MB-231 breast
18.8 µM: LOX IMVI melanoma
29.9 µM: SK-MEL-5 melanoma
13.8 µM: DLD-1 colon
5.85 µM: RPMI-8226 leukemia
31.1 µM: MDA-N
5.17 µM: HOP-92 NSCLC
3.27 µM: IGROV1 ovarian
22.5 µM: HS 578T breast
4.38 µM: NCI-H460 lung
23.9 µM: NCI-H23 lung
18.3 µM: SNB-78 CNS
26.9 µM: ACHN renal
6.32 µM: OVCAR-5 ovarian
15.7 µM: CAKI-1 renal
19 µM: SF-539 CNS
35.6 µM: SK-MEL-2 melanoma
21.2 µM: SW-620 colon
4.34 µM: HL-60(TB) leukemia

CCOC(=O)/C(=C\c1ccc(N(CCC#N)CCC#N)cc1)NC(=O)c1cc([N+](=O)[O-])ccc1Cl
not listed: XF 498 CNS | HOP-92 NSCLC | SR leukemia | MDA-N | NCI/ADR-RES ovarian | PC-3 prostate | MDA-MB-435 | T-47D breast | DU-145 prostate | HS 578T breast | MCF7 breast | MDA-MB-231 breast | BT-549 breast
> 100 µM: all other assays above

CN1CC(=O)N(C)c2ncn(Cc3ccccc3)c2C1=O
96.4 µM: XF 498 CNS
not listed: HCT-116 colon | NCI-H522 lung | UACC-257 melanoma | NCI-H226 lung | OVCAR-5 ovarian | HOP-92 NSCLC | KM20L2 colon | HOP-62 NSCLC | SK-MEL-2 melanoma | CAKI-1 renal | MDA-N | NCI/ADR-RES ovarian | PC-3 prostate | MDA-MB-435 | T-47D breast | DU-145 prostate | HS 578T breast | MCF7 breast | MDA-MB-231 breast | BT-549 breast
> 100 µM: all other assays above

Cc1nc(C(N)=S)sc1C(=O)CC(=O)C(=O)Nc1ccccc1[N+](=O)[O-]
not listed: COLO 205 colon | XF 498 CNS | NCI-H226 lung | SN12C renal | MDA-N | NCI/ADR-RES ovarian | PC-3 prostate | MDA-MB-435 | T-47D breast | DU-145 prostate | HS 578T breast | MCF7 breast | MDA-MB-231 breast | BT-549 breast
> 100 µM: all other assays above
